Experimental data published in patent US20130041005A1, “PHARMACEUTICAL COMPOSITIONS COMPRISING NEUROPILIN INHIBITORS, AND THEIR USE FOR THE PREVENTION AND/OR TREATMENT OF ANGIOGENIC DISORDERS AND CANCERS” (TRAGEX PHARMA, priority 2011, published 2013).

Experiments:
[1] = test system: LNCaP; assay: WST-1 proliferation assay, LNCaP; format: cell-based; settings: Homo sapiens; Prostate LNCaP, 72 h; read-out: Anti-proliferative activity IC50 (μM) ± SD
Source text: (§1) Several cancer cell lines were used: breast cancer cells (MDA-MB-231 (ATTCC® Number HTB-26™), MDA-MB-436 (ATTCC® Number HTB-130™), MDA-MB-438, BT-474 (ATTCC® Number HTB-20™)); cervical cancer cells (HeLa (ATTCC® Number CCL-2™)); colon cancer cells (HCT-116 (ATTCC® Number CCL-247™) and HT-29 (ATTCC® Number HTB-38™)); osteosarcoma cells (U2OS (ATTCC® Number HTB-96™)); pancreas cancer cells (MIA PaCa-2 (ATTCC® Number CRL-1420™) and Panc-10.5 (ATTCC® Number CRL-2547™)); prostate cancer cells (PC-3 (ATTCC® Number CRL-1435™) and LNCaP (ATTCC® Number CRL-1740™)); brain cancer cells (U87 glioblastoma (ATTCC® Number HTB-14™) and SH-SYSY neuroblastoma (ATTCC® Number CRL-2266™)). […]
(§2) After observation of cells under the microscope, old media were removed and the adherent cells washed gently twice with PBS (Phosphate Buffer Saline, —Ca^2+, —Mg^2+, Lonza cat no: 17-512F/12). […] 50 μl of this solution were transferred in 20 μl of isotonic solution and the cells were counted by count cellular (Beckman Coulter). […]
(§3) The cell proliferation WST-1 assay is a colorimetric assay for the quantification of cell proliferation and viability, based on the enzymatic cleavage of the tetrazolium salt WST-1 added to the culture medium, to a water soluble colored formazan dye, detected by absorbance at 450 nm, by mitochondrial succinate-tetrazolium reductase in viable cells. […]

[2] = test system: HCT-29; assay: WST-1 proliferation assay, HCT-29; format: cell-based; settings: Homo sapiens; Colon HCT-29, 72 h; read-out: Anti-proliferative activity IC50 (μM) ± SD
Source text: as §1, §2, §3

[3] = test system: MDAMB-231 cells; assay: Adhesion test (crystal violet), MDA-MB-231; format: cell-based, Human; settings: MDAMB-231, FIGS. 1A-C
Protocol: The crystal violet (hexamethyl pararosaniline chloride) is used as biologic colorant. It enters in the living cells, allowing the visualisation of the dark purple adherent living cells on the bottom of the plate.
After an incubation period of 72 h, the adherent cells were fixed with […] paraformaldehyde
3% for 15 min at room temperature. The medium and non-adherent cells were removed, and the cells were washed extensively with […] PBS (+Ca^2+ and +Mg^2+) (Lonza) and then stained with 50 μl of crystal violet 0.04% for 30 min at room temperature. The cells were washed gently 3 times with 100 μl PBS and were permeabilised with 100 μl triton 2% for 15 min. The microplate was stirred to obtain a homogenous solution and absorbance was quantified at 580 nm by Microplate Manager 5.2.
The percentage of inhibition is calculated as follow: % inhibition=100−[(DOsample/DOcontrol)*100].

[4] = test system: RAJI; assay: WST-1 proliferation assay, RAJI; format: cell-based; settings: Homo sapiens; Burkitt's lymphoma RAJI; read-out: Anti-proliferative activity IC50 (μM) ± SD
Protocol: (§4) All the cancer cell lines were maintained in cultured in DMEM GlutaMAX™ (GIBCO Invitrogen, France, cat no 31966047) enhanced with 10% foetal bovine serum (GIBCO Invitrogen, France, cat no 10270-106) and 1% penicillin G/streptomycin (GIBCO Invitrogen, France, cat no 15140-122). Only Panc-10.5 cells were cultivated in RPMI 1640 medium (Gibco) supplemented with 2 mM L-glutamine, 1.5 g/L sodium bicarbonate, 4.5 g/L glucose, 10 mM HEPES, 1 mM sodium pyruvate, 10 Units/ml human insulin, […] (SVF): 15% (75 ml in 500 ml of medium).
(§5) Cells were grown as subconfluent monolayer and cultured in 75 cm^2 flasks at 37° C., 5% CO2 in a humidified atmosphere, and medium was changed every two days. […]
as §3
(§6) After an incubation period of 72 h, at day 4, were prepared the 19 ml medium with reagent WST-1 1 ml ([…]). […] The cells were incubated at 37° C. in a humidified atmosphere of 5% CO2 for 1 h 30 and the absorbance at 450-655 nm was measured by Microplate Manager 5.2 (Bio-Rad).

[5] = test system: HeLa; assay: WST-1 proliferation assay, HeLa; format: cell-based; settings: Homo sapiens; for IC50: Cervical HeLa, 72 h, read-out: Anti-proliferative activity IC50 (μM) ± SD; for inhibition at 0.1 µM / inhibition at 0.5 µM / inhibition at 1 µM: HeLa
Source text: Several cancer cell lines were used: breast cancer cells (MDA-MB-231 (ATTCC® Number HTB-26™), MDA-MB-436 (ATTCC® Number HTB-130™), MDA-MB-438, BT-474 (ATTCC® Number HTB-20™)); cervical cancer cells (HeLa (ATTCC® Number CCL-2™)); colon cancer cells (HCT-116 (ATTCC® Number CCL-247™) and HT-29 (ATTCC® Number HTB-38™)); osteosarcoma cells (U2OS (ATTCC® Number HTB-96™)); pancreas cancer cells (MIA PaCa-2 (ATTCC® Number CRL-1420™) and Panc-10.5 (ATTCC® Number CRL-2547™)); prostate cancer cells (PC-3 (ATTCC® Number CRL-1435™) and LNCaP (ATTCC® Number CRL-1740™)); brain cancer cells (U87 glioblastoma (ATTCC® Number HTB-14™) and SH-SYSY neuroblastoma (ATTCC® Number CRL-2266™)).
as §4
Cells were grown as subconfluent monolayer and cultured in 75 cm^2 flasks at 37° C., 5% CO2 in a humidified atmosphere, and medium was changed every two days. Only cells from passages 2-6 were used for the experiments.
After observation of cells under the microscope, old media were removed and the adherent cells washed gently twice with PBS (Phosphate Buffer Saline, —Ca^2+, —Mg^2+, Lonza cat no: 17-512F/12). All cells were detached with 3 ml of trypsin/EDTA (chelator of calcium and magnesium ions) (Lonza), incubated for 5 min at 37° C., and examined using a microscope to ensure that the cells were detached and floating. Then, 3 ml TNS (Trypsin Neutralizing Solution, Lonza, France, cat no CC-5002) or of culture medium were added to inactivate the trypsin, and the cell suspension was transferred in a falcon and centrifuged for 7 min at 1400 rpm. The supernatant was removed and the cell pellet resuspended in […] of culture medium. 50 μl of this solution were transferred in 20 μl of isotonic solution and the cells were counted by count cellular (Beckman Coulter). At day 0, 200 μl of cellular suspension (3.10^3 cells/well for the HUVEC cells, breast cancer cells (MDA-MB-231 1.10^4 cells/well, MDA-MB-436 1.10^4 cells/well, MDA-MB-438 2.10^4 cells/well, BT-474 2.5.10^4 cells/well); cervical cancer cells (HeLa 5.000 cells/well); colon cancer cells (HCT-116 5.10^3 cells/well, HCT-29 1.1.10^4 cells/well); osteosarcoma cells (U2OS 8.10^3 cells/well); pancreas cancer cells (MIA PaCa-2 5.10^3 cells/well, Panc-10.5 1.5.10^4 cells/well); prostate cancer cells (PC-3 4.10^3 cells/well, LNCaP 2.10^4 cells/well); brain cancer cells (U87 5.10^3 cells/well, SH-SYSY 8.10^4 cells/well)) were then plated on 96 well plates and incubated at 37° C. in a humidified atmosphere of 5% CO2 for 24 h.
At day 1, the compounds 1 or 2 of the invention were added at increasing concentrations (0.1-10 μM) in the wells and plates were incubated at 37° C. in a humidified atmosphere of 5% CO2 for 72 h.
The cell proliferation WST-1 assay is a colorimetric assay for the quantification of cell proliferation and viability, based on the enzymatic cleavage of the tetrazolium salt WST-1 added to the culture medium, to a water soluble colored formazan dye, detected by absorbance at 450 nm, by mitochondrial succinate-tetrazolium reductase in viable cells. An augmentation in enzyme activity will then lead to an increase in the amount of formazan dye formed, which directly correlates to the number of metabolically active cells in the culture.
After an incubation period of 72 h, at day 4, were prepared the 19 ml medium with reagent WST-1 1 ml ([…]). The medium was removed from the 96 microplate and 200 μl of solution WST-1/medium were added for each well. […]

[6] = test system: U266; assay: WST-1 proliferation assay, U266; format: cell-based; settings: Homo sapiens, U-266; Myeloma U266; read-out: Anti-proliferative activity IC50 (μM) ± SD
Protocol: as §4, §5, §3, §6

SMILES | IC50 [1] [µM] | IC50 [2] [µM] | inhibition of adhesion of cancer cells in culture [3] | IC50 [4] [µM] | IC50 [5] [µM] | inhibition at 0.1 µM [5] [%] | inhibition at 0.5 µM [5] [%] | inhibition at 1 µM [5] [%] | IC50 [6] [µM]
Cc1ccc(-c2nc3ccccc3[nH]2)cc1NC(=S)NC(=O)c1ccc2c(c1)OCCO2 [Compound 1, N-[5-(1H-benzimidazol-2-yl)-2-methylphenyl]-N′-(2,3-dihydro-1,4-benzodioxin-6-ylcarbonyl)thiourea] | 1.4 ± 0.13 | 0.5 ± 0.05 | inhibited the adhesion | 1.5 ± 0.01 | 0.4 ± 0.04 | 13 | 64 | 68 | 2
O=C(NC(=S)Nc1cccc(-c2nc3ccccc3[nH]2)c1)c1ccc2c(c1)OCCO2 [Compound 2, N-[3-(1H-benzimidazol-2-yl)phenyl]-N′-(2,3-dihydro-1,4-benzodioxin-6-ylcarbonyl)thiourea] | 1.3 ± 0.15 | 0.1 ± 0.01 | inhibited the adhesion | 1.3 ± 0.04 | 0.05 ± 0.04 | 62 | 64 | 67 | 1.5 ± 0.04
